In ChEMBL document CHEMBL3045628, “Quantitative structureactivity relationships studies for prediction of antimicrobial activity of synthesized disulfonamide derivatives” (2011):

How the values were obtained:
Assay type in all cases: functional
Staphylococcus aureus = assay: Antimicrobial activity against Staphylococcus aureus ATCC 25923 after 24 hr by broth microdilution assay
Bacillus cereus = assay: Antimicrobial activity against Bacillus cereus RSKK 863 after 24 hr by broth microdilution assay
Escherichia coli = assay: Antimicrobial activity against Escherichia coli ATCC 11230 after 24 hr by broth microdilution assay

SMILES	-logMIC (Staphylococcus aureus)	-logMIC (Bacillus cereus)	-logMIC (Escherichia coli)
Cc1cccc(S(=O)(=O)NCCNS(=O)(=O)c2cccc(C)c2)c1	3.522	3.48	3.58
O=S(=O)(NCCCCCNS(=O)(=O)c1ccccc1)c1ccccc1	3.38	3.2	3.496
O=S(=O)(NCCNS(=O)(=O)c1ccccc1)c1ccccc1	3.38	3.37	3.51
Cc1ccc(S(=O)(=O)NCCCNS(=O)(=O)c2ccc(C)cc2)cc1	3.3	3.38	3.52
Cc1ccc(S(=O)(=O)NCCNS(=O)(=O)c2ccc(C)cc2)cc1	3.4	3.4	3.53
COc1ccccc1S(=O)(=O)NCCCNS(=O)(=O)c1ccccc1OC	3.55	3.6	3.711
O=S(=O)(NCCCNS(=O)(=O)c1ccccc1)c1ccccc1	3.285	3.36	3.49
O=S(=O)(NCCCCNS(=O)(=O)c1ccccc1)c1ccccc1	3.24	3.358	3.48
Cc1ccc(S(=O)(=O)NCCCCNS(=O)(=O)c2ccc(C)cc2)cc1	3.26	3.35	3.5
Cc1ccccc1S(=O)(=O)NCCNS(=O)(=O)c1ccccc1C	3.638	3.56	3.7
Cc1ccccc1S(=O)(=O)NCCCNS(=O)(=O)c1ccccc1C	3.6	3.542	3.68
Cc1ccccc1S(=O)(=O)NCCCCNS(=O)(=O)c1ccccc1C	3.54	3.505	3.64
Cc1cccc(S(=O)(=O)NCCCNS(=O)(=O)c2cccc(C)c2)c1	3.48	3.44	3.57
Cc1cccc(S(=O)(=O)NCCCCNS(=O)(=O)c2cccc(C)c2)c1	3.47	3.41	3.55
COc1ccc(S(=O)(=O)NCCNS(=O)(=O)c2ccc(OC)cc2)cc1	3.49	3.46	3.56
CS(=O)(=O)NCCNS(C)(=O)=O	2.99	2.876	2.99
CS(=O)(=O)NCCCNS(C)(=O)=O	2.925	2.864	2.97

SMILES	-logMIC (Staphylococcus aureus)	-logMIC (Bacillus cereus)	-logMIC (Escherichia coli)
CS(=O)(=O)NCCCCNS(C)(=O)=O	2.9	2.84	2.95
CS(=O)(=O)NCCCCCNS(C)(=O)=O	2.88	2.828	2.94
CCS(=O)(=O)NCCNS(=O)(=O)CC	2.66	2.66	2.72
CCS(=O)(=O)NCCCNS(=O)(=O)CC	2.642	2.642	2.7
CCS(=O)(=O)NCCCCNS(=O)(=O)CC	2.637	2.638	2.69
CCS(=O)(=O)NCCCCCNS(=O)(=O)CC	2.61	2.58	2.67
COc1ccc(S(=O)(=O)NCCCNS(=O)(=O)c2ccc(OC)cc2)cc1	3.46	3.42	3.511
CCCS(=O)(=O)NCCCCCNS(=O)(=O)CCC	2.96	2.78	3.191
COc1cccc(S(=O)(=O)NCCNS(=O)(=O)c2cccc(OC)c2)c1	3.52	3.58	3.6
COc1cccc(S(=O)(=O)NCCCNS(=O)(=O)c2cccc(OC)c2)c1	3.5	3.55	3.59
COc1ccccc1S(=O)(=O)NCCNS(=O)(=O)c1ccccc1OC	3.58	3.66	3.72
CCCS(=O)(=O)NCCCNS(=O)(=O)CCC	3.009	3.058	3.104
CCCS(=O)(=O)NCCCCNS(=O)(=O)CCC	2.933	2.95	3.119
CCCCS(=O)(=O)NCCNS(=O)(=O)CCCC	2.974	2.83	3.12
CCCCS(=O)(=O)NCCCNS(=O)(=O)CCCC	2.861	2.917	3.116
CCCCS(=O)(=O)NCCCCNS(=O)(=O)CCCC	2.829	2.85	2.857
CCCS(=O)(=O)NCCNS(=O)(=O)CCC	3.003	3.179	3.258
